This is an account of results in patent US9012640B2, “Cabergoline derivatives” (MAP Pharmaceuticals, Inc., priority 2012, dated 2015).

Test [1] addresses Recombinant human dopaminergic receptor D2L (Homo sapiens, UniProt P14416). Description: GTPγS functional assay. The format is biochemical. The conditions noted are these: read-out: EC50, agonist activity with the D2L receptor. On the procedure: (§1) Recombinant human dopaminergic receptor D1, D2L, and D4 and serotonin receptor 5-HT1B and 5-HTID activity was assayed using a GTPΥS functional assay with Compound 1 at concentrations between 0.01 nM and 10,000 nM.

The target in test [2] is T1, serotonin receptor 5-HT1D (Homo sapiens, UniProt P28221). The test can be described thus: GTPγS functional assay. In kind it is biochemical. On the procedure:
as §1

Test [3] deals with Recombinant human dopaminergic receptor D1 (Homo sapiens, UniProt P21728). The test can be described thus: GTPγS functional assay. In kind it is biochemical. On the procedure:
as §1

Test [4] concerns the target T2, serotonin receptor 5-HT1B (Homo sapiens, UniProt P28222). Description: GTPγS functional assay. The format is biochemical. To be noted: 0.01 nM to 10,000 nM. On the procedure:
as §1

Test [5] deals with T3, Recombinant human dopaminergic receptor D4 (Homo sapiens, UniProt P21917).
T3 sequence (P21917 1-419): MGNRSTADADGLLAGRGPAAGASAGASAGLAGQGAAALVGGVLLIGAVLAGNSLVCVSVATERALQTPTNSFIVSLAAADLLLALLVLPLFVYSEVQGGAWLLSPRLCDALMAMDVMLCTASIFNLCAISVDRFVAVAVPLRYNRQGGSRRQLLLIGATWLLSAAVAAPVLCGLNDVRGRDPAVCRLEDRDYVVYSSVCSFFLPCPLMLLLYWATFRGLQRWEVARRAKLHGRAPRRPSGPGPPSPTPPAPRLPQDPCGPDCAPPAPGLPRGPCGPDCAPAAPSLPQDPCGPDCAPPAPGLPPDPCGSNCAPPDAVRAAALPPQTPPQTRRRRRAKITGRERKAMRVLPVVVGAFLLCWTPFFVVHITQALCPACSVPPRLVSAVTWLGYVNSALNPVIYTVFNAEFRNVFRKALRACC
The test can be described thus: GTPγS functional assay. In kind it is biochemical. On the procedure: as §1

Test [6] addresses T4, Recombinant human serotonin receptor 5-HT2A (Homo sapiens, UniProt P28223).
T4 construct: expressed in transfected cells; host or cells: CHO-K1 (coexpressing mitochondrial apoaequorin)
The test can be described thus: Aequorin assay, receptor agonist/antagonist activity, CHO-K1 cells. The format is cell-based. On the procedure: (§2) Compound 1 was synthesized as described above and assayed for receptor activity against a panel of dopaminergic and serotoninergic receptors. Recombinant human serotonin receptors 5-HT2A, and 5-HT2B were expressed in CHO-K1 cells and activity (receptor agonist/antagonist activity) was assayed using an Aequorin assay (coexpression of mitochondrial apoaequorin). Compound 1 was used at a concentration of 0.010 nM to 20,000 nM for agonist activity and 0.005 nM to 10,000 nM for antagonist activity.

The target in test [7] is T5, Recombinant human serotonin receptor 5-HT2B (Homo sapiens, UniProt P41595).
T5 construct: expressed in transfected cells; host or cells: CHO-K1 (coexpressing mitochondrial apoaequorin)
The description is as above. In kind it is cell-based. On the procedure: as §2

For test [8], the target named is T4, Recombinant human serotonin receptor 5-HT2A. To be noted: reported, Newman-Tancredi et al. 2002; read-out: reported EC50 on 5-HT2A receptors; cited from earlier work.
Test [9] deals with T1, serotonin receptor 5-HT1D. The conditions noted are these: cited from earlier work.
The target of test [10] is T2, serotonin receptor 5-HT1B. The conditions noted are these: read-out: EC50 on 5-HT1B receptors, reported; Newman-Tancredi et al. 2002; cited from earlier work.
The target in test [11] is T5, Recombinant human serotonin receptor 5-HT2B. To be noted: reported, Newman-Tancredi et al. 2002; read-out: reported EC50 on 5-HT2B receptors; cited from earlier work.
Test [12] addresses T3, Recombinant human dopaminergic receptor D4. The conditions noted are these: cited from earlier work.

Molecules are shown by their SMILES. Where two headings read alike, the source gives them in different places.

Broadly, the EC50 is the concentration that produces a half-maximal response. The Emax is the maximal effect, on the per cent scale that the assay sets.

T4 sequence (P28223 whole entry): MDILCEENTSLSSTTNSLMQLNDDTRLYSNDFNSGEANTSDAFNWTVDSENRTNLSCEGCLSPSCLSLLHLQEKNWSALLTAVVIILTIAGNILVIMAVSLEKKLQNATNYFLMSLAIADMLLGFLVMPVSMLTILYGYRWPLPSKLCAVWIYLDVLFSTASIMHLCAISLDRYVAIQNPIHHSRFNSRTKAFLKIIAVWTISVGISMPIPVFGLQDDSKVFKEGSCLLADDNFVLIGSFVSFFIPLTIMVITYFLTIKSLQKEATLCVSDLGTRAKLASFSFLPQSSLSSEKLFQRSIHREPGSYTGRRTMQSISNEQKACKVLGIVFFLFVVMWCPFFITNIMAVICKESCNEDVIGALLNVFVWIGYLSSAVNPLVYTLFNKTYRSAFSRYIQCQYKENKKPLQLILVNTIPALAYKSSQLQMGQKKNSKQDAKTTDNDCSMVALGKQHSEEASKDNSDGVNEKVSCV
T5 sequence (P41595 whole entry): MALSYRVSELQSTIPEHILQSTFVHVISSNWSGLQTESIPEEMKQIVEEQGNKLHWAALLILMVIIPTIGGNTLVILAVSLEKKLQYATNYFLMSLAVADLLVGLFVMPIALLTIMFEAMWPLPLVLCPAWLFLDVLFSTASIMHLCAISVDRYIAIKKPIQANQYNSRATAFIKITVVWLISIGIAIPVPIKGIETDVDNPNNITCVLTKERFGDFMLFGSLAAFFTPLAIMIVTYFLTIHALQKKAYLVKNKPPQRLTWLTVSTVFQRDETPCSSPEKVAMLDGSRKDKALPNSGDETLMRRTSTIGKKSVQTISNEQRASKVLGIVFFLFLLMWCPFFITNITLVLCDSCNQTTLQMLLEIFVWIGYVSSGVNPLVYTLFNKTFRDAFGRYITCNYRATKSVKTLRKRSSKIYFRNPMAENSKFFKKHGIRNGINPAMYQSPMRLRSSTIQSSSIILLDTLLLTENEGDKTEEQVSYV
T1 sequence (P28221 whole entry): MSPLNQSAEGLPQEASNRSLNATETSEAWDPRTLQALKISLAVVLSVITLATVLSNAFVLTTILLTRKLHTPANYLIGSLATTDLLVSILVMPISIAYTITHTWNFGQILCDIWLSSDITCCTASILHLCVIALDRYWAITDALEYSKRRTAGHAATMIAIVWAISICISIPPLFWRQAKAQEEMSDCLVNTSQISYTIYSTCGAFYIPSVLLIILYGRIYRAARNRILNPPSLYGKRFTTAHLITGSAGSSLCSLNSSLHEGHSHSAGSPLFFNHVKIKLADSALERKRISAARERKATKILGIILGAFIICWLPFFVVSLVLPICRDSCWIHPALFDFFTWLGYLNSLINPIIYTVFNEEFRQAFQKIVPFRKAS
T2 sequence (P28222 whole entry): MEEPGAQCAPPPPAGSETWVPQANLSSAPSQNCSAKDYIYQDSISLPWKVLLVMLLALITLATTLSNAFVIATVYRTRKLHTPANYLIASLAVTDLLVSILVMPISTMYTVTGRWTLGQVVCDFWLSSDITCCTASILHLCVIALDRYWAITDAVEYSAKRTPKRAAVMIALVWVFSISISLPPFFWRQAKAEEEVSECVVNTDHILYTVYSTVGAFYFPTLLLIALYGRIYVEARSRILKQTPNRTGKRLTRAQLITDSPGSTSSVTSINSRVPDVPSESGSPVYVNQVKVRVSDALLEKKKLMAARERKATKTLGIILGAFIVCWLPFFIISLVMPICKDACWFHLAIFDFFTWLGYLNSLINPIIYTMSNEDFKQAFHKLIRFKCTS
Chain of Recombinant human dopaminergic receptor D2L (P14416 whole entry): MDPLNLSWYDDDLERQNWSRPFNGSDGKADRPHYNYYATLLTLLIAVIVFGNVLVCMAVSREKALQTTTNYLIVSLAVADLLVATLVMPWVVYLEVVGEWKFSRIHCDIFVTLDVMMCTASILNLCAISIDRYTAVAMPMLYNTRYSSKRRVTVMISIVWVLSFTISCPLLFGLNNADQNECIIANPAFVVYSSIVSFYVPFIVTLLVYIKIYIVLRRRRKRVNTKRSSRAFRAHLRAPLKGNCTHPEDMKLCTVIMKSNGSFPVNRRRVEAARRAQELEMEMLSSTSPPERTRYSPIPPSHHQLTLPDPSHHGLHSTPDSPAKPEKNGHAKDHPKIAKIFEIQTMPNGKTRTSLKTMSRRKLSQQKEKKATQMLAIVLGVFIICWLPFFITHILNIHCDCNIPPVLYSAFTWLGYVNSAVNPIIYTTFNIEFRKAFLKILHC
Chain of Recombinant human dopaminergic receptor D1 (P21728 whole entry): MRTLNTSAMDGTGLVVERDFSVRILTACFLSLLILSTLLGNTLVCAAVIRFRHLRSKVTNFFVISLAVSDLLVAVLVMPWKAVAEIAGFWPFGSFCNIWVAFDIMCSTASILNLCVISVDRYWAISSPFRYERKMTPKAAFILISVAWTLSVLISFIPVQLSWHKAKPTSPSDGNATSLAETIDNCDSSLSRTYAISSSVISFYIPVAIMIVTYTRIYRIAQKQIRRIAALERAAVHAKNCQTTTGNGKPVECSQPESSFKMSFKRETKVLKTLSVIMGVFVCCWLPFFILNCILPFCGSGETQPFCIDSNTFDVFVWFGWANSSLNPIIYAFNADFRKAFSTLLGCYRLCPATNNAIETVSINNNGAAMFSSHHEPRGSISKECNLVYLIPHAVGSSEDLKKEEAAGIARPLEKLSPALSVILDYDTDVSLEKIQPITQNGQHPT

On to `C=CCN1C[C@H](C(=O)N(CCCN(C)C)C(=O)NCC)C[C@@H]2c3cccc4[nH]c(C(F)(F)F)c(c34)C[C@H]21` [Compound 1], for which the EC50 in [1] is 12.6 nM; in [2] (GTPγS, read-out: EC50, agonist on 5-HT1D receptors), 263 nM; in test [6] (agonist activity, Aequorin assay, CHO-K1, read-out: EC50 on 5-HT2A receptors), 946 nM; in test [7] (agonist activity, Aequorin assay, CHO-K1, read-out: EC50 on 5-HT2B receptors) it was 6050 nM. Also, the “agonist activity on serotonin receptor 5-HT1D in words” value in test [2] is listed as “weak agonist activity”. In addition, the maximum response (Emax) in test [2] (GTPγS, read-out: Emax on 5-HT1D receptors) came out at 31%; in test [5] (GTPγS, receptor not given, follows the D2L/D4 comparison) it was 26%. Further, the “selectivity for the D2L receptor over the D1 receptor” value in [3] is reported as “approximately 110 fold”. Further, in test [4], the “activity on 5-HT1B receptors” value is listed as “not active”. The “D2L to D4 receptor selectivity” value in test [5] (when comparing EC50) was found to be 18 fold. For the same compound, in test [6] (as compared to cabergoline), the “5-HT2A receptor agonist activity in words” value was “weak”. In addition, the “5-HT2B receptor agonist activity in words” value in test [7] (as compared to cabergoline) is listed as “weak”.
With `C=CCN1C[C@H](C(=O)N(CCCN(C)C)C(=O)NCC)C[C@@H]2c3cccc4[nH]cc(c34)C[C@H]21` [cabergoline, Cabergoline], the EC50 in test [8] was 7.8 nM; in test [9] (Newman-Tancredi et al. 2002, read-out: EC50 on 5-HT1D receptors, reported), 16 nM; in test [10] it was 2240 nM; in test [11] it was 2.6 nM. Moreover, the “Emax on 5-HT1D receptors, cabergoline comparison” value in [9] (comparison value for cabergoline) was 68%. Also, in [12] (reported results for cabergoline), the “D2L to D4 receptor selectivity, reported” value is recorded as around 200 fold. In [12] (reported values, Newman-Tancredi et al. 2002, receptor not given), the “Emax, reported” value was 49%.
